Measured values as given in the supplement of paper PMC10307832.

Columns and labels:
Assay in all cases: relative viability (nuclei count vs DMSO), 5 days (fraction); higher = more cells survive
[1] = compound: Cn1cc(-c2cnn3c(N)c(Br)c([C@@H]4CCCNC4)nc23)cn1 + CC(=O)c1c(C)c2cnc(Nc3ccc(N4CCNCC4)cn3)nc2n(C2CCCC2)c1=O [Palbociclib] (partner 0.5 µM)
Procedure, shortened: (§1)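 Lung cancer cell lines in 1536-well plates got either a single drug or a fixed anchor-drug dose together with five library-drug doses (not always all listed) in √10 steps, by pin tool, on the day after seeding. Nuclei were counted after 5 days, and relative viability is the treated-to-vehicle ratio of nuclei counts. Values are medians of duplicate plates.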

[2] = compound: Cn1cc(-c2cnn3c(N)c(Br)c([C@@H]4CCCNC4)nc23)cn1 + O=C(c1cc(Cc2n[nH]c(=O)c3ccccc23)ccc1F)N1CCN(C(=O)C2CC2)CC1 [Olaparib] (partner 8 µM)
Procedure, shortened: as §1

[3] = compound: Cn1cc(-c2cnn3c(N)c(Br)c([C@@H]4CCCNC4)nc23)cn1 + Cc1nc(NC(=O)N2CCC[C@H]2C(N)=O)sc1-c1ccnc(C(C)(C)C(F)(F)F)c1 [Alpelisib] (partner 2 µM)
Procedure, shortened: as §1

[4] = compound: Cn1cc(-c2cnn3c(N)c(Br)c([C@@H]4CCCNC4)nc23)cn1 + Nc1nc2[nH]cc(CCc3ccc(C(=O)N[C@@H](CCC(=O)O)C(=O)O)cc3)c2c(=O)[nH]1 [Pemetrexed] (partner 0.2 µM)
Procedure, shortened: as §1

Cell Line	relative viability ([1]; first compound 0.05 µM)	relative viability ([1]; first compound 0.1581 µM)	relative viability ([1]; first compound 0.5 µM)	relative viability ([1]; first compound 1.581 µM)	relative viability ([1]; first compound 5 µM)	relative viability ([2]; first compound 0.05 µM)	relative viability ([2]; first compound 0.1581 µM)	relative viability ([2]; first compound 0.5 µM)	relative viability ([2]; first compound 1.581 µM)	relative viability ([2]; first compound 5 µM)	relative viability ([3]; first compound 0.05 µM)	relative viability ([3]; first compound 0.1581 µM)	relative viability ([3]; first compound 0.5 µM)	relative viability ([3]; first compound 1.581 µM)	relative viability ([3]; first compound 5 µM)	relative viability ([4]; first compound 0.05 µM)	relative viability ([4]; first compound 0.1581 µM)	relative viability ([4]; first compound 0.5 µM)	relative viability ([4]; first compound 1.581 µM)	relative viability ([4]; first compound 5 µM)
201T	0.362	0.373	0.34	0.322	0.363	0.888	0.836	0.803	0.743	0.719	1.04	1.02	1.05	0.98	0.909	0.362	0.327	0.315	0.264	0.294
A549	–	–	–	–	–	0.483	0.35	0.352	0.301	0.166	0.659	0.822	0.653	0.752	0.495	–	–	–	–	–
A-427	0.51	0.503	0.508	0.504	0.411	0.819	0.761	0.742	0.704	0.561	1.11	1.05	1.15	0.977	1.01	0.938	0.99	1.03	0.837	0.46
ABC-1	–	1.06	0.872	0.452	0.718	–	1.1	1.17	0.783	0.456	1.14	1.03	0.814	0.917	0.401	–	–	–	–	–
BEN	0.501	0.489	0.497	0.459	0.53	1.14	1.12	1.17	1.01	0.905	0.891	1.15	1.05	0.869	0.778	0.763	0.825	0.719	0.708	0.616
CAL-12T	0.505	0.569	0.476	0.189	0.202	0.835	0.752	0.824	0.398	0.268	1.27	1.29	0.937	0.716	0.228	1.45	0.778	0.892	0.623	0.393
COR-L23	0.345	0.346	0.356	0.231	0.183	0.38	0.302	0.3	0.249	0.168	0.768	1.09	0.981	0.589	0.306	0.196	0.178	0.178	0.186	0.139
COR-L 105	0.411	0.367	0.385	0.41	0.386	0.467	0.512	0.752	0.64	0.519	0.962	1	0.978	0.734	0.572	0.939	0.921	1.08	0.92	0.82
Calu-6	–	–	–	–	–	0.604	0.521	0.481	0.251	0.168	0.98	0.82	0.883	0.379	0.182	–	–	–	–	–
ChaGo-K-1	0.956	0.98	0.911	0.869	0.97	0.407	0.511	0.419	0.428	0.463	–	–	–	–	–	0.259	0.248	0.273	0.28	0.247
EKVX	0.368	0.376	0.383	0.413	0.355	0.761	0.958	0.872	0.767	0.707	0.908	1.05	0.91	0.694	0.753	0.497	0.293	0.307	0.241	0.206
EMC-BAC-2	0.533	0.52	0.527	0.445	0.43	0.492	0.521	0.47	0.383	0.475	0.778	0.885	0.66	0.708	0.81	0.478	0.386	0.399	0.433	0.462
EPLC-272H	0.294	0.312	0.311	0.273	0.25	0.709	0.683	0.294	0.279	0.215	0.93	0.902	1.01	0.956	0.824	0.268	0.186	0.139	0.106	0.098
H3255	0.314	0.342	0.323	0.291	0.277	0.567	0.615	0.604	0.509	0.39	0.776	0.722	0.684	0.626	0.494	0.537	0.536	0.56	0.483	0.461
HARA	0.246	0.264	0.322	0.299	0.158	0.758	0.856	0.784	0.442	0.229	0.875	0.701	0.792	0.806	0.619	0.228	0.213	0.223	0.141	0.141
HCC-15	0.71	0.785	0.721	0.604	0.591	0.832	0.797	0.837	0.867	0.973	0.981	1.01	0.863	0.782	0.901	0.206	0.232	0.227	0.226	0.207
HCC-44	0.876	0.957	0.978	0.964	0.952	1.01	0.975	1	0.91	1.01	0.876	0.899	0.759	0.747	0.786	0.608	0.586	0.674	0.321	0.369
HCC-78	0.445	0.391	0.532	0.439	0.488	0.826	0.874	0.947	0.878	0.465	0.365	0.334	0.372	0.354	0.289	0.912	0.842	0.869	0.869	0.743
